Where “and” joins values, the source holds several entries; their conditions need not be identical. Equal entries are not always repeated.
What was measured:
[1] = Solution compatibility: NNDMA solution of ASA diluted with diluents, HPLC; assay type: physicochemical; conditions: for Assay of Compounds: Aspirin / Assay of Compounds: Salicylic Acid: ASA in NNDMA diluted with D5W, RT
Method: In another series of experiments, 1 ml of the solution containing only NNDMA (Table 3) was diluted with 100 ml of diluents such as 1. distilled H2O, 2. Ringers lactate solution, 3. D5W and 4. normal saline and then the pH of these solutions were adjusted to 6.5 with 1 N NaOH. […] After 12 hours of storage, however, the hydrolysis of ASA was observed (up to 5% within 24 hours). […] One skilled in the art will recognize that modifications may be made in the persent invention without deviating from the spirit or scope of this invention which is illustrated further by the specific examples of dissolution attempts described herein and these examples are not to be construed as limiting the scope of this invention.
(§1) A 10 μl solution of this formulation is tested using the following HPLC procedure for analysis. A constant-flow pump, Thermo-Finnigan Spectra-System P2000 was used to deliver eluent solvent at a rate of 1 ml/min to a column, Luna, 5μ, C8(2), 100 A, […] (Phenomenex, Calif.). The eluent solvent system was NaH2PO4 (0.025 M): Na2HPO4 (0.25 M): MeOH (25:25:50 V/V) pH adjusted to 3.2 with either phosphoric acid or concentrated HCL. Methanolic solutions of aspirin and salicylic acid 10 μl (concentration of 1 mg/ml) were injected onto the column. The eluted compounds were detected using a Spectra 200 programmable UV wavelength detector and Thermo-Finnigan Chrome Jet integrator. The wavelength of detector was either […]. Under these conditions, retention times for aspirin and hydrolysis product, salicylic acid was approximately 1.75 minutes and 3.34 minutes respectively. […]

[2] = HPLC analysis of ASA solutions for hydrolysis to salicylic acid (stability on storage); assay type: physicochemical
Method: as §1

[3] = 25° C.; cited from earlier work
[4] = 1 ml NNDMA solution diluted in D5W, after 12 hours (FIG. 6)
[5] = a. H2O (2.0 ml), 1-Propanol (0.5 ml), Tween 20 (0.5 ml), within 1 hr
[6] = aspirin dissolved in water (2 ml), upon mixing (FIG. 1)
[7] = glycerin (1 ml), 1-propanol (3 ml), Tween 80 (0.2 ml), upon mixing (FIG. 2)

**Q.** For CC(=O)Oc1ccccc1C(=O)O [ASA, aspirin], which “HPLC peak 2” value [1, 4] is on record?
**A.** 0.3%

**Q.** And the “HPLC peak 3” value [1, 4]?
**A.** 0.4%

**Q.** And the “aspirin purity, HPLC peak 1” value ([1]; 1 ml NNDMA solution diluted in distilled water and glucose (D5W), after 12 hours (FIG. 6))?
**A.** 95% and 94.8%

**Q.** And the “appearance of diluted solutions” value ([1]; 1 ml NNDMA solution in 100 ml distilled H2O, Ringers lactate, D5W or normal saline, pH 6.5, after several days)?
**A.** remained clear

**Q.** What about the “hydrolysis of ASA” value ([1]; 1 ml NNDMA solution in 100 ml distilled H2O, Ringers lactate, D5W or normal saline, pH 6.5, up to 12 hours of storage) of the same molecule?
**A.** < 1%

**Q.** And the “hydrolysis of ASA” value ([1]; 1 ml NNDMA solution in 100 ml distilled H2O, Ringers lactate, D5W or normal saline, pH 6.5, within 24 hours)?
**A.** up to 5%

**Q.** What about the “Assay of Compounds: Aspirin” value ([1]; up to 12 hours) of the same molecule?
**A.** >99%

**Q.** What about the “Assay of Compounds: Salicylic Acid” value ([1]; up to 12 hours) of the same molecule?
**A.** <1%

**Q.** What about the “Assay of Compounds: Aspirin” value ([1]; up to 24 hours) of the same molecule?
**A.** 94.7-95.3%

**Q.** And the “Assay of Compounds: Salicylic Acid” value ([1]; up to 24 hours)?
**A.** Max. ~6%

**Q.** What about the “Purity of ASA in solution” value ([2]; 1. N,N-Dimethylacetamide (NNDMA)) of the same molecule?
**A.** >99%

**Q.** And the “Purity of ASA in solution” value ([2]; 2. NNDMA, Glycerol (0.1 in 10 ml), Tween 20 (0.1 in 10 ml))?
**A.** Purity >99%

**Q.** And the “Purity of ASA in solution” value ([2]; 3. NNDMA, Glycerol (0.1 in 10 ml), Tween 40 (0.1 in 10 ml))?
**A.** Purity >99%

**Q.** What about the “Purity of ASA in solution” value ([2]; 4. NNDMA, Glycerol (0.1 in 10 ml), Tween 60 (0.1 in 10 ml)) of the same molecule?
**A.** Purity >99%

**Q.** What about the “Purity of ASA in solution” value ([2]; 5. NNDMA, Glycerol (0.1 in 10 ml), Tween 80 (0.1 in 10 ml)) of the same molecule?
**A.** Purity >99%

**Q.** What about the “Purity of ASA in solution” value ([2]; 6. NNDMA, Glycerol (0.1 in 10 ml)) of the same molecule?
**A.** Purity >99%

**Q.** And the “Purity of ASA in solution” value ([2]; 7. NNDMA, Glycerol (0.1 in 10 ml), DMSO (1-2%))?
**A.** Purity >99%

**Q.** What about the “Purity of ASA in solution” value ([2]; 8. NNDMA, DMSO (1.2%)) of the same molecule?
**A.** Purity >99%

**Q.** What about the “Aspirin (HPLC purity)” value ([2]; ASA in NNDMA, 40° C., 6 months) of the same molecule?
**A.** 97.5% and 97.9%-98.6%

**Q.** And the “Aspirin (HPLC purity)” value ([2]; ASA in NNDMA, 40° C., 6 months, listed as aspirin)?
**A.** 98%

**Q.** What about the “Aspirin (HPLC purity)” value ([2]; ASA in NNDMA, RT, 6 months) of the same molecule?
**A.** 99.4%

**Q.** What about the “Salicylic Acid / hydrolysis product” value ([2]; ASA in NNDMA, RT, 6 months) of the same molecule?
**A.** 0.3%

**Q.** What about the “stability of solution of ASA in NNDMA” value ([2]; Example 1: 1.0 gm of aspirin in 2 mL NNDMA) of the same molecule?
**A.** stable and resists hydrolysis

**Q.** What about the “solution stability on pH adjustment” value ([2]; NNDMA solutions of Table 3, pH adjusted in the range of 1.5-6.0) of the same molecule?
**A.** without changing solution stability

**Q.** And the “aspirin purity (HPLC)” value ([2]; NNDMA, glycerol and Tween 20, RT, 6 months (FIG. 5))?
**A.** 99%

**Q.** What about the “HPLC Results: aspirin” value [2, 5] of the same molecule?
**A.** ~95% aspirin

**Q.** And the “HPLC Results: salicylic acid” value [2, 5]?
**A.** ~5%

**Q.** And the “amount of aspirin present” value ([2]; all 8 NNDMA solutions of Table 3, room temperature, 6 months)?
**A.** greater than 98%

**Q.** What about the hydrolysis on storage ([2]; all 8 NNDMA solutions of Table 3, stored at room temperature) of the same molecule?
**A.** no significant amount of hydrolysis could be detected

**Q.** What about the “aspirin, HPLC peak 1 area” value [2, 6] of the same molecule?
**A.** 95.4%

**Q.** And the “hydrolysis product, HPLC peak 2” value [2, 6]?
**A.** 4.9%

**Q.** And the “HPLC Results: salicylic acid” value ([2]; b. H2O (2.0 ml), 1-Propanol (0.5 ml), Tween 40, within 1 hr)?
**A.** ~5%

**Q.** And the “HPLC Results: salicylic acid” value ([2]; c. H2O (2.0 ml), 1-Propanol (0.5 ml), Tween 60, within 1 hr)?
**A.** ~5%

**Q.** What about the “HPLC Results: salicylic acid” value ([2]; d. H2O (2.0 ml), 1-Propanol (0.5 ml), Tween 80, within 1 hr) of the same molecule?
**A.** ~5%

**Q.** And the “HPLC Results: salicylic acid” value ([2]; e. H2O (2.0 ml), 1-Propanol (0.5 ml), PEG 300, within 1 hr)?
**A.** ~5%

**Q.** What about the “HPLC Results: salicylic acid” value ([2]; f. H2O (2.0 ml), 1-Propanol (0.5 ml), PEG 400, within 1 hr) of the same molecule?
**A.** ~5%

**Q.** What about the “HPLC Results: salicylic acid” value ([2]; g. H2O (2.0 ml), 1-Propanol (0.5 ml), PEG 600, within 1 hr) of the same molecule?
**A.** ~5%

**Q.** And the “aspirin, HPLC peak 1” value [2, 7]?
**A.** 94.3%

**Q.** What about the “hydrolysis product, HPLC peak 2” value [2, 7] of the same molecule?
**A.** 5.7%

**Q.** And the “HPLC Results: salicylic acid” value ([2]; h. H2O (2.0 ml), 1-Propanol (0.5 ml), Glycerol, within 1 hr)?
**A.** ~5%

**Q.** And the “HPLC Results: salicylic acid” value ([2]; i. H2O (2 ml), +DMSO (1-2%), Tween 20, within 1 hr)?
**A.** ~5%

**Q.** And the “HPLC Results: salicylic acid” value ([2]; j. H2O (2 ml), +DMSO (1-2%), Tween 40, within 1 hr)?
**A.** ~5%

**Q.** What about the “HPLC Results: salicylic acid” value ([2]; k. H2O (2 ml), +DMSO (1-2%), Tween 60, within 1 hr) of the same molecule?
**A.** ~5%

**Q.** What about the “HPLC Results: salicylic acid” value ([2]; l. H2O (2 ml), +DMSO (1-2%), Tween 80, within 1 hr) of the same molecule?
**A.** ~5%

**Q.** And the “HPLC Results: salicylic acid” value ([2]; m. Glycerine (1 ml), 1-Propanol (3 ml), Tween 80 (0.2 ml), within 1 hr)?
**A.** ~5%

**Q.** What about the “HPLC Results: salicylic acid” value ([2]; n. Glycerine (1 ml), 1,2 propanediol (3 ml), Tween 80 (0.2 ml), within 1 hr) of the same molecule?
**A.** ~5%

**Q.** What about the “HPLC Results: salicylic acid” value ([2]; o. Glycerine (1 ml), PEG 300 (3 ml), Tween 80 (0.2 ml), within 1 hr) of the same molecule?
**A.** ~5%

**Q.** And the “HPLC Results: salicylic acid” value ([2]; p. Glycerine (1 ml), PEG 400 (3 ml), Tween 80 (0.2 ml), within 1 hr)?
**A.** ~5%

**Q.** And the “HPLC Results: salicylic acid” value ([2]; q. Glycerine (1 ml), PEG 600 (3 ml), Tween 80 (0.2 ml), within 1 hr)?
**A.** ~5%

**Q.** What about the “stability of clear solutions in NNDMA on storage” value ([2]; room temperature and 40° C., 6 months) of the same molecule?
**A.** without the formation of turbidity or a precipitate and without significant hydrolysis of aspirin

**Q.** And the “salicylic acid (hydrolysis product) in solutions of ASA” value ([2]; the 17 solvent systems of Table 2, within one hour, aspirin 50-75 mg/ml, pH 1.5 to 6.8)?
**A.** ≥ 5%

**Q.** What about the “stability in N,N-dimethylacetamide” value ([2]; up to 500 mg/ml, stored at 40° C. for up to 6 months) of the same molecule?
**A.** without undergoing significant hydrolysis

**Q.** And the solubility in water [3]?
**A.** poor solubility

From patent US8481600B2, “Formulation of aspirin that is stable and showing minimal hydrolysis for parenteral administration for the treatment of cardiovascular and other disease states” (Academic Pharmaceuticals, Inc., priority 2007, dated 2013)
